Reference: patent publication US20070254894A1, “Novel small molecules with selective cytotoxicity against human microvascular endothelial cell proliferation” (priority 2006, published 2007)
Structures can show the parent of a compound that is named as a salt. Where two headings read alike, the source gives them in different places.

Assays:
[1] = test system: HMVEC cells stimulated with b-FGF; assay: b-FGF driven HMVEC proliferation screen; format: cell-based
Experimental: (§1) HMVEC cells were plated on collagen-coated plates at 2500 cells/well for 24 hours. Various concentrations of test compounds were then added to duplicate plates. […] Anti-FGF antibody (final concentration of 5 μg/mL) was added to four control wells as a standard inhibitor. At the same time the compounds were added, a T-zero plate was generated (Alamar blue was added to a plate and read after three hours). The plates with the compounds were incubated for one hour at 37° C., 5% carbon dioxide. At this point, b-FGF was added (final concentration of 2.5 ng/mL). Tween-20 (10 μL) was added to four additional control wells to represent total death and the plates were returned to the carbon dioxide incubator for 6 days.

in vitro = details: human, primary human dermal fibroblasts, D. Fibroblast LC50, 6 days, Alamar blue
Experimental: (§2) In parallel with the VEGF and FGF screens, a normal cell toxicity assay was run. Primary Human Dermal Fibroblasts (Clonetics) were plated at 5000 cells/well. After 24 hours various concentrations of test compounds, were added in duplicate plates and 10% Tween-20 was added to four control wells to represent total death. At the same time a T-zero plate was generated. The plates were returned to the carbon dioxide incubator and on day 6 Alamar blue was added and the plates read after 3 hours.
(§3) Using a T-zero plate allows the observation of compounds that cause the cells to become static as well as inhibit growth.

[2] = test system: HMVEC cells stimulated with VEGF 165; assay: VEGF driven HMVEC proliferation screen; format: cell-based
Experimental: as §1
The assay was run identically using VEGF in place of b-FGF. The final concentration of VEGF 165, in this mode, was 10 ng/mL. The control inhibitor was anti-VEGF antibody (final concentration of […]). All other conditions were the same.

[3] = test system: Primary Human Dermal Fibroblasts; assay: in vitro; details: read-out: D. Fibroblast LC50, 6 days, Alamar blue
Experimental: as §2, §3

[4] = Homo sapiens, HMVEC, 144 h, b-FGF 2.5 ng/mL, 6 days, Alamar blue, read-out: b-FGF LC50
[5] = Homo sapiens, HMVEC, 144 h, VEGF 165 10 ng/mL, 6 days, Alamar blue, read-out: VEGF LC50
[6] = b-FGF 2.5 ng/mL, 6 days, Alamar blue, read-out: b-FGF LC50
[7] = VEGF 165 10 ng/mL, 6 days, Alamar blue, read-out: VEGF LC50

`Cc1cc(NC(=O)c2ccccn2)c2ncccc2c1Br` [Compound 16, pyridine-2-carboxylic acid (5-bromo-6-methyl-quinolin-8-yl)-amide] gave a CC50 [1, 4] of 380 nM, a CC50 at 6 days (in vitro) of over 10000 nM and a CC50 [2, 5] of 380 nM.

`O=C(Nc1cccc2cccnc12)c1cc(Cl)ccn1` [Compound 22, 4-chloropyridine-2-carboxylic acid quinolin-8-ylamide] gave a CC50 [1, 4] of 130 nM, a CC50 at 6 days (in vitro) of over 10000 nM and a CC50 [2, 5] of 100 nM.

In the case of `O=C(Nc1cccc2cccnc12)c1cc(Sc2ccccc2)ccn1` [Compound 31, 4-phenylsulfanylpyridine-2-carboxylic acid quinolin-8-ylamide], the CC50 [1, 4] is reported as 150 nM, the CC50 at 6 days (in vitro) is reported as over 10000 nM and the CC50 [2, 5] is reported as 170 nM.

`O=C(Nc1cccc2cccnc12)c1cc(Oc2ccccc2)ccn1` [Compound 32, 4-phenoxypyridine-2-carboxylic acid quinolin-8-ylamide] showed a CC50 [1, 4] of 1800 nM, a CC50 at 6 days (in vitro) of over 10000 nM and a CC50 [2, 5] of 1100 nM.

Molecule `O=C(Nc1cccc2cccnc12)c1ncccc1OCc1ccccc1` [Compound 47, 3-benzyloxypyridine-2-carboxylic acid quinolin-8-ylamide] has a CC50 [1, 4] of 400 nM, a CC50 at 6 days (in vitro) of over 10000 nM and a CC50 [2, 5] of 280 nM.

Work on `Cc1cccnc1C(=O)Nc1ccc(N2CCOCC2)c2cccnc12` [Compound 50] yielded a CC50 [1, 4] of 74 nM, a CC50 at 6 days (in vitro) of over 10000 nM and a CC50 [2, 5] of 110 nM.

`O=C(Nc1ccc(N2CCOCC2)c2cccnc12)c1cc(Cl)ccn1` [Compound 51] showed a CC50 [1, 4] of 230 nM, a CC50 at 6 days (in vitro) of over 10000 nM and a CC50 [2, 5] of 220 nM.

For `COc1cc(NC(=O)c2cc(Cl)ccn2)c2ncccc2c1` [Compound 52], the CC50 [1, 4] was 85 nM, the CC50 at 6 days (in vitro) was over 10000 nM and the CC50 [2, 5] was 93 nM.

`COc1cc(NC(=O)c2cc(N3CCOCC3)ccn2)c2ncccc2c1` [Compound 53] gave a CC50 [1, 4] of 28 nM, a CC50 at 6 days (in vitro) of over 10000 nM and a CC50 [2, 5] of 30 nM.

With `CN(C)CC(=O)Nc1cccc2cccnc12` [Compound 55, 2-dimethylamino-N-quinolin-8-yl-acetamide] the CC50 [1, 4] was 590 nM, the CC50 at 6 days (in vitro) was over 10000 nM and the CC50 [2, 5] was 630 nM.

In the case of `O=C(CN1CCCC1)Nc1cccc2cccnc12` [Compound 56], the CC50 [1, 4] is reported as 1400 nM, the CC50 at 6 days (in vitro) is reported as over 10000 nM and the CC50 [2, 5] is reported as 1300 nM.

`O=C(Nc1cccc2cccnc12)[C@@H]1CCCN1` [Compound 57, (S)-pyrrolidine-2-carboxylic acid quinolin-8-ylamide] gave a CC50 [1, 4] of 1200 nM, a CC50 at 6 days (in vitro) of over 10000 nM and a CC50 [2, 5] of 1300 nM.

In the case of `CN(C)[C@@H](Cc1ccccc1)C(=O)Nc1cccc2cccnc12` [Compound 59], the CC50 [1, 4] is reported as 1100 nM, the CC50 at 6 days (in vitro) is reported as over 10000 nM and the CC50 [2, 5] is reported as 1200 nM.

Molecule `C[C@@H](C(=O)Nc1cccc2cccnc12)N(C)C` [Compound 60] has a CC50 [1, 4] of 520 nM, a CC50 at 6 days (in vitro) of over 10000 nM and a CC50 [2, 5] of 730 nM.

In the case of `O=C(Nc1cccc2cccnc12)[C@@H]1CCCN1CC1CC1` [Compound 61], the CC50 [1, 4] is reported as 1500 nM, the CC50 at 6 days (in vitro) is reported as over 10000 nM and the CC50 [2, 5] is reported as 1500 nM.

`CCCN1CCC[C@H]1C(=O)Nc1cccc2cccnc12` [Compound 62] showed a CC50 [1, 4] of 1200 nM, a CC50 at 6 days (in vitro) of over 10000 nM and a CC50 [2, 5] of 1300 nM.

Molecule `CC(C)CN1CCC[C@H]1C(=O)Nc1cccc2cccnc12` [Compound 63] has a CC50 [1, 4] of 4400 nM, a CC50 at 6 days (in vitro) of over 10000 nM and a CC50 [2, 5] of 5500 nM.

For `CC(C)N1CCC[C@H]1C(=O)Nc1cccc2cccnc12` [Compound 64], the CC50 [1, 4] was 5200 nM, the CC50 at 6 days (in vitro) was over 10000 nM and the CC50 [2, 5] was 6400 nM.

`CN1CCC[C@@H]1C(=O)Nc1cccc2cccnc12` [Compound 65] showed a CC50 [1, 4] of 290 nM, a CC50 at 6 days (in vitro) of over 10000 nM and a CC50 [2, 5] of 230 nM.

Molecule `COc1cc(NC(=O)[C@@H]2CCCN2C)c2ncccc2c1` [Compound 66] has a CC50 [1, 4] of 240 nM, a CC50 at 6 days (in vitro) of over 10000 nM and a CC50 [2, 5] of 240 nM.

Molecule `Cc1cc(NC(=O)[C@@H]2CCCN2C)c2ncccc2c1` [Compound 67] has a CC50 [1, 4] of 350 nM, a CC50 at 6 days (in vitro) of over 10000 nM and a CC50 [2, 5] of 230 nM.

`CN1CCC[C@H]1C(=O)Nc1ccc(N2CCOCC2)c2cccnc12` [Compound 68] showed a CC50 [1, 4] of 820 nM, a CC50 at 6 days (in vitro) of over 10000 nM and a CC50 [2, 5] of 430 nM.

For `CN1CCCC[C@H]1C(=O)Nc1cccc2cccnc12` [Compound 69], the CC50 [1, 4] was 2600 nM, the CC50 at 6 days (in vitro) was over 10000 nM and the CC50 [2, 5] was 3100 nM.

Molecule `CN1CCCC[C@@H]1C(=O)Nc1cccc2cccnc12` [Compound 70] has a CC50 [1, 4] of 2800 nM, a CC50 at 6 days (in vitro) of over 10000 nM and a CC50 [2, 5] of 3900 nM.

`Cc1cc(NS(=O)(=O)c2ccccn2)c2ncccc2c1C` [Compound 75, pyridine-2-sulfonic acid (5,6-dimethyl-quinolin-8-yl)-amide] showed a CC50 [1, 4] of 160 nM, a CC50 at 6 days (in vitro) of over 10000 nM and a CC50 [2, 5] of 190 nM.

For `O=C(Nc1cccc2ccnnc12)c1ccccn1` [Compound 76], the CC50 [1, 4] was 3300 nM, the CC50 at 6 days (in vitro) was over 10000 nM and the CC50 [2, 5] was 3500 nM.

For `O=S(=O)(Nc1cccc2nccnc12)c1ccccn1` [Compound 78], the CC50 [1, 4] was 4200 nM, the CC50 at 6 days (in vitro) was over 10000 nM and the CC50 [2, 5] was 2400 nM.

Molecule `CCN(C)c1c(NC(=O)c2ccccn2)ccc(Cl)c1Cl` [Compound 92] has a CC50 [1] of 7900 nM, a CC50 [3] of over 10000 nM and a CC50 [2] of 8200 nM.

`O=C(Nc1cccc2cccnc12)c1ccccn1` [Compound 93, pyridine-2-carboxylic acid quinolin-8-ylamide hydrochloride salt] gave a CC50 [1, 4] of 71 nM, a CC50 at 6 days (in vitro) of over 10000 nM and a CC50 [2, 5] of 72 nM.

`O=C(Nc1cccc2nccnc12)c1ccccn1` [Compound 94] gave a CC50 [1, 4] of 290 nM, a CC50 at 6 days (in vitro) of over 10000 nM and a CC50 [2, 5] of 280 nM.

With `Cc1cc(NC(=O)c2ccccn2)c2ncccc2c1C` [Compound 95] the CC50 [1, 4] was 170 nM, the CC50 at 6 days (in vitro) was over 10000 nM and the CC50 [2, 5] was 150 nM.

With `Cc1ccc(NC(=O)c2ccccn2)c2ncccc12` [Compound 96] the CC50 [1, 4] was 100 nM, the CC50 at 6 days (in vitro) was over 10000 nM and the CC50 [2, 5] was 140 nM.

Molecule `O=C(Nc1cc(Cl)c(Cl)c2cccnc12)c1ccccn1` [Compound 97] has a CC50 [1, 4] of 250 nM, a CC50 at 6 days (in vitro) of over 10000 nM and a CC50 [2, 5] of 250 nM.

Molecule `CN1CCN(c2ccnc(C(=O)Nc3cccc4cccnc34)c2)CC1` [Compound 100, 4-(4-methylpiperazin-1-yl)pyridine-2-carboxylic acid quinolin-8-ylamide trifluoroacetate salt] has a CC50 [1, 4] of 19 nM, a CC50 ([3]; trifluoroacetate salt) of 2900 nM and a CC50 [2, 5] of 18 nM.

In the case of `CN1CCN(c2ccnc(C(=O)Nc3cccc4cccnc34)c2)CC1` [Compound 101], the CC50 [1, 6] is reported as 14 nM, the CC50 [3] is reported as over 10000 nM and the CC50 [2, 7] is reported as 15 nM.

With `CN1CCCN(c2ccnc(C(=O)Nc3cccc4cccnc34)c2)CC1` [Compound 102] the CC50 [1, 4] was 31 nM, the CC50 at 6 days (in vitro) was over 10000 nM and the CC50 [2, 5] was 24 nM.

In the case of `O=C(Nc1cccc2cccnc12)c1cc(N2CCC(N3CCCC3)CC2)ccn1` [Compound 103], the CC50 [1, 4] is reported as 38 nM, the CC50 at 6 days (in vitro) is reported as 4300 nM and the CC50 [2, 5] is reported as 33 nM.

With `COc1cc(NC(=O)c2cc(N3CCN(C)CC3)ccn2)c2ncccc2c1` [Compound 105] the CC50 [1, 6] was 120 nM, the CC50 at 6 days (in vitro) was 9600 nM and the CC50 [2, 7] was 91 nM.

`CCN(C)c1ccccc1NC(=O)c1ccccn1` [Compound 106] gave a CC50 [1, 4] of 1200 nM, a CC50 at 6 days (in vitro) of over 10000 nM and a CC50 [2, 5] of 1500 nM.

Molecule `CN1CCC[C@H]1C(=O)Nc1cccc2cccnc12` [Compound 107] has a CC50 [1, 6] of 410 nM, a CC50 at 6 days (in vitro) of over 10000 nM and a CC50 [2, 7] of 460 nM.

`CN1CCC[C@H]1C(=O)Nc1cccc2cccnc12` [Compound 108, (S)-1-methyl-pyrrolidine-2-carboxylic acid quinolin-8-ylamide L-tartrate salt] showed a CC50 ([1]; b-FGF 2.5 ng/mL, 6 days, Alamar blue, L-tartrate salt, read-out: b-FGF LC50) of 220 nM, a CC50 [3] of over 10000 nM and a CC50 ([2]; VEGF 165 10 ng/mL, 6 days, Alamar blue, L-tartrate salt, read-out: VEGF LC50) of 290 nM.

`O=S(=O)(Nc1cc(Cl)c(Cl)c2cccnc12)c1ccccn1` [Compound 109] gave a CC50 [1, 4] of 340 nM, a CC50 at 6 days (in vitro) of over 10000 nM and a CC50 [2, 5] of 450 nM.

`CN1CCN(c2ccc(NS(=O)(=O)c3ccccn3)c3ncccc23)CC1` [Compound 110] showed a CC50 [1, 4] of 1300 nM, a CC50 at 6 days (in vitro) of over 10000 nM and a CC50 [2, 5] of 1500 nM.
